Patent USRE39862E1, “Unsaturated 14, 15-cyclopropanoandrostanes, a method for their production and pharmaceutical compositions containing these compounds” (Schering AG, priority 2000, dated 2007)

Key:
[1] = target: T1, androgen receptor of the rat prostate (Rattus norvegicus, UniProt P15207); assay: binding to the androgen receptor of the rat prostate (reference substance R 1881); details: reference substance 17β-hydroxy-17α-methyl-estra-4,9,11-triene-3-one (R 1881)
T1 construct: to the androgen receptor of the rat prostate; from tissue; host or cells: rat prostate
T1 sequence (P15207 1-902): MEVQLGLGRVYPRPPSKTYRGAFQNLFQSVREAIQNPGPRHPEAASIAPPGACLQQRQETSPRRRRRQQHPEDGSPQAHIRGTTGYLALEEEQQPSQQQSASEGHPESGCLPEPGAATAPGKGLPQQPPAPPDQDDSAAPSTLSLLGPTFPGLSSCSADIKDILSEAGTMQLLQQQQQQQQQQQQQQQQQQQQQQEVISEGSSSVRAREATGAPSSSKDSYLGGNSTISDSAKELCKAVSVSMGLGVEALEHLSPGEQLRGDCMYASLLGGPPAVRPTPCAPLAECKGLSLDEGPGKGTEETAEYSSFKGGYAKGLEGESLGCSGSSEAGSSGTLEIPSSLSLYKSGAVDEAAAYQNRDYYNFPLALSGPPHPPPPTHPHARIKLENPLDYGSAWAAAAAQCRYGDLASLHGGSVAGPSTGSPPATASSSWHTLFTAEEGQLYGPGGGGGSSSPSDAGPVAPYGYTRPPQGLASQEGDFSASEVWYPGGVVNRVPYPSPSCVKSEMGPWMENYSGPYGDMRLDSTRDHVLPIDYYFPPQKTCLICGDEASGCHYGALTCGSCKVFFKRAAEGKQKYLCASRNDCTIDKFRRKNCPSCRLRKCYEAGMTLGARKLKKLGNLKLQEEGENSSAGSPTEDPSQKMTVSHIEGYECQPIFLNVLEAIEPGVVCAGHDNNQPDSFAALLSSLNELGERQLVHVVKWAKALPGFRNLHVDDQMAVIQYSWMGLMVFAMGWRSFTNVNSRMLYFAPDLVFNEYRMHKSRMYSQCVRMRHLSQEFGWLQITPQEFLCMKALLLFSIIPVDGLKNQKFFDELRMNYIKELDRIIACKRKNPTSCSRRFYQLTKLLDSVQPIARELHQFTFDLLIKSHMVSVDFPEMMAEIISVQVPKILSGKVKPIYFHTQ
From the text: The 4-chloro-17β-hydroxy-14α,15α-methylene-androst-4-ene-3-one binds to the extent of 42%±3% to the androgen receptor of the rat prostate (reference substance. 17β-hydroxy-17α-methyl-estra-4,9,11-triene-3-one; R 1881).

[2] = target: T2, progesterone receptor of the rabbit uterus (Oryctolagus cuniculus, UniProt P06186); assay: binding to the progesterone receptor of the rabbit uterus (reference substance progesterone)
T2 construct: from tissue; host or cells: rabbit uterus
T2 sequence (P06186 1-930): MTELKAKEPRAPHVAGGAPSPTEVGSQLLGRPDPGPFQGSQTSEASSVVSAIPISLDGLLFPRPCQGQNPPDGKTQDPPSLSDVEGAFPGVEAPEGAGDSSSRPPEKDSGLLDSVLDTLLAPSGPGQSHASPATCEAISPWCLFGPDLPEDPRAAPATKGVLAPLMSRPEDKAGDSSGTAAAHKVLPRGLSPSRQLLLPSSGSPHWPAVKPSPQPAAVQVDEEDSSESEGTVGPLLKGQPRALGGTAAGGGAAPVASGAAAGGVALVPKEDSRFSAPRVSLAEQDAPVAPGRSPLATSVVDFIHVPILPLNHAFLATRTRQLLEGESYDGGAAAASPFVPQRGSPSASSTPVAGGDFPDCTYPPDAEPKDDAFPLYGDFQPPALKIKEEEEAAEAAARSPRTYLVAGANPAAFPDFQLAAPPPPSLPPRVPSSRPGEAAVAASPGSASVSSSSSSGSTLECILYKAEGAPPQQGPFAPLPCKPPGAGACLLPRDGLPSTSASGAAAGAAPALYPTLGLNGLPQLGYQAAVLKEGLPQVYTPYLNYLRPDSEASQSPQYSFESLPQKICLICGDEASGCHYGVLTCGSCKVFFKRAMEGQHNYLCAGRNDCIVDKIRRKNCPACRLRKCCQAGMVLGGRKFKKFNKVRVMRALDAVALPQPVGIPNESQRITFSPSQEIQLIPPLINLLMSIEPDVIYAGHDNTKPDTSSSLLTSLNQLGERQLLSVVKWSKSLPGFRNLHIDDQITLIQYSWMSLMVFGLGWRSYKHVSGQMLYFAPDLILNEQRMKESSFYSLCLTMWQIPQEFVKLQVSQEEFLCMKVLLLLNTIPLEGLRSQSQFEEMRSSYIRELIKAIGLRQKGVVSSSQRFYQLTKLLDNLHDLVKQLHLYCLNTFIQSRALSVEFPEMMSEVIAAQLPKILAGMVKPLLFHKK

Hershberger test = details: in vivo
[3] = pregnancy maintenance test; details: in vivo

C[C@]12CCC(=O)C(Cl)=C1CC[C@@H]1[C@@H]2CC[C@]2(C)[C@@H](O)C[C@@H]3C[C@]312 [Example 3, 4-Chloro-17β-hydroxy-14α,15α-methylene-androst-4-ene-3-one]
binds to the extent of ... to the androgen receptor [1]: 42%±3%
binding to the progesterone receptor [2]: practically no binding
androgenic activity in the Hershberger test (Hershberger test): distinct androgenic activity
gestagenic activity in the pregnancy maintenance test [3]: hardly any gestagenic activity
